Patent US20250129331A1, “MEDIUM COMPOSITION FOR CULTURE OF EXTRAEMBRYONIC ENDODERM STEM CELLS” (SEOUL NATIONAL UNIVERSITY R&DB FOUNDATION, priority 2023, published 2025)
Entries after “also recorded” stand apart in the source; their conditions may differ.

B1: Act A: activin A (R&D Systems) (protein, UniProt P08476 311-426, looked up)
Inhibin beta A chain: GLECDGKVNICCKKQFFVSFKDIGWNDWIIAPSGYHANYCEGECPSHIAGTSGSSLSFHSTVINHYRMRGHSPFANLKSCCVPTKLRPMSMLYYDDGQNIIKKDIQNMIVEECGCS
modifications: Inhibin beta A chain

Legend:
Format in all cases: cell-based, pig
porcine XEN cells [1] = assay: Withdrawal of signaling molecules or supplements from porcine XEN cell medium (morphology, AP staining, GATA6 ICC); settings: for colony morphology / proliferation on withdrawal of the factor: factor withdrawn from medium with B27, CHIR, FGF2, LIF, Act A, FIG. 3a; for AP staining and GATA6 expression on withdrawal of the factor: factor withdrawn, FIG. 3b, 3c
Experimental: Before staining, all cell samples were pre-cultured at 4° C. for 10 minutes and fixed with 4% paraformaldehyde for 15 minutes. After washing with Dulbecco's Phosphate Buffered Saline (DPBS) (Welgene), the fixed cells were stained with a buffer solution containing nitro blue tetrazolium chloride and 5-bromo-4-chloro-3-indolyl phosphate toluidine salt stock solution (Roche; Basel, Switzerland) at room temperature for 30 minutes. Stained cells were observed under an inverted microscope.
For immunostaining, the cells were fixed in 4% (w/v) paraformaldehyde. After washing with Dulbecco's Phosphate Buffered Saline (DPBS), the fixed cells were treated with 0.2% Triton-X100 (Sigma-Aldrich) at 4° C. for 2 hours. The cells were then treated with Dulbecco's Phosphate Buffered Saline (DPBS) containing 10% (v/v) goat or donkey serum for 1 hour to prevent non-specific binding. Serum-treated cells were cultured with primary antibodies at 4° C. for 24 hours. The primary antibodies used were as follows: rabbit anti-SOX2 (1:200, Millipore; AB5603), rabbit anti-NANOG (1:200, PeproTech; Rocky Hill, NJ, USA; 500-P236), chicken anti-OCT4 (1:100, Abcam; Cambridge, UK; ab134218), goose anti-GATA6 (15 μg/mL; R&D systems; AF1700), goose anti-SOX17 (1:200, R&D systems; AF1924), and rabbit anti-GATA4 (1:200, Abcam; ab84593). After incubation with primary antibodies, the cells were treated with Alexa Fluor-conjugated secondary antibodies at 4° C. for 24 hours. Nuclei were stained with Hoechst 33342 (Molecular Probes; Eugene, OR, USA). Images of stained cells were taken using a TE2000-U inverted fluorescence microscope (Nikon; Tokyo, Japan).
FIGS. 3a, 3b and 3c show changes in the withdrawal of signaling molecules or supplements for XEN cells.
In order to optimize the culture system of porcine XEN cells, B27 supplement, CHIR, FGF2, LIF or Act A was withdrawn from the medium during maintenance, and essential growth factors and signaling molecules were identified. Colonies were morphologically analyzed (FIG. 3a). […] In order to verify the responsiveness to these factors, AP staining and ICC for GATA6, which is a representative XEN cell marker, were performed to support the morphological analysis results (FIGS. 3b and 3c).

porcine XEN cells [2] = assay: Culture of porcine XEN cells under various concentrations of essential factors (colony number, qPCR); settings: for concentration range appropriate for XEN cell culture: 7 days, colony number and qPCR of GATA6, SALL4, SPARC
Experimental: Total RNA was extracted using TRIzol reagent (Invitrogen; Carlsbad, USA) and cDNA was synthesized using High-Capacity RNA-to-cDNA Kit (Applied Biosystems; Waltham, MA, USA). cDNA was amplified using the primer sets listed in Table 1 below and PowerSYBR® Green PCR Master Mix (Applied Biosystems).
In addition, in order to fine-tune the culture system, porcine XEN cells were cultured under various concentrations of essential factors including FGF2, LIF and CHIR99021.

porcine XEN cells [3] = assay: Screening of serum-free culture conditions (signaling molecules, KSR, B27) for porcine XEN cells; settings: FIG. 2a
Experimental: Porcine XEN cells were cultured under various conditions. Each of six fetal bovine serum (FBS) (three different batches purchased from Hyclone, Biowest, TCB and Genedepot) was applied to maintain porcine XEN cells. In addition, several signaling molecules and supplements were added to the basal medium supplemented with 15% (v/v), 10% (v/v) or 5% (v/v) knockout serum replacement (KSR) (Gibco; Gaithersburg, MD, USA) and tested. Factors tested were fibroblast growth factor 2 (FGF2) (R&D Systems; Minneapolis, MN, USA), human recombinant leukemia inhibitory factor (hrLIF) (Millipore; MA, USA), 5 ng/ml activin A (Activin A; R&D Systems), CHIR99021 (Cayman chemical; Ann Arbor, MI, USA), which is a GSK-3B inhibitor, and 1×B27 supplement (Gibco). The basal medium was a DMEM/F12 based medium, which consisted of 1× Glutamax, 0.1 mM β-mercaptoethanol and 1× antibiotic-antimycotic (all of which are manufactured by Gibco). The medium was changed every 24 hours and cultured under conditions of 5% CO2, 5% O2 and 38° C.
The present inventors performed screening of various factors in a DMEM/F12-based KSR-containing medium, which is commonly used for a serum-free medium in stem cells.

| Molecule | colony morphology / proliferation on withdrawal of the factor (porcine XEN cells [1]) | AP staining and GATA6 expression on withdrawal of the factor (porcine XEN cells [1]) | concentration range appropriate for XEN cell culture (porcine XEN cells [2]) | doubling time (porcine XEN cells [3]; DMEM/F12-based KSR-containing medium, factor alone) | proliferation / growth of XEN cells (porcine XEN cells [3]; DMEM/F12-based KSR-containing serum-free medium, 2b) | number of XEN colonies (porcine XEN cells [2]; low concentration of the factor, FIG. 4a, 4b) | self-renewal of porcine XEN cells (porcine XEN cells [1]; high concentration, control versus Act A withdrawn) |
| --- | --- | --- | --- | --- | --- | --- | --- |
| Cc1c[nH]c(-c2cnc(NCCNc3ccc(C#N)cn3)nc2-c2ccc(Cl)cc2Cl)n1 [CHIR99021, reference compound] | colony boundaries collapsed and cell density within colonies decreased | detected locally | 0.5 to 4.5 µM | – | – | – | – |
| LIF: human recombinant leukemia inhibitory factor (hrLIF) (Millipore) | cell proliferation was inhibited | detected locally; also recorded: intense GATA6 expression only in the colony center | 0.1 to 20 ng/mL | – | – | – | – |
| FGF2: fibroblast growth factor 2 (FGF2) (R&D Systems) | no colonies after 4 days | detected locally | 10 to 100 ng/mL | prolonged | insufficient to proliferate XEN cells | few colonies were detected | – |
| B1 | – | evenly positive | – | – | – | – | inhibits the self-renewal |
